# Values of other authors as cited in patent US20160271257A1, “Low Molecular Weight Immune-Modulators As Adjuvants for Specific Immunotherapy” (PLS-DESIGN GMBH, priority 2013, published 2016).
# Entries after “also recorded” stand apart in the source; their conditions may differ. Read-outs that look alike come from different tables or passages of the source. Ends that are not written are not given here.
# Columns and labels:
# [1] = 10 ng with 100 μg OVA
# [2] = mouse, in vivo
# [3] = i.p. 5 μg/kg every 2 days
# [4] = individuals not adhering to dietary calcium restriction
# [5] = not given; remark: listed apart in the source
# [6] = not given; remark: listed apart in the source
# NF-kappa B translocation = conditions: read-out: concentration for 50% inhibition of NF-kappa B translocation
# [7] = test system: isolated rat cardiomyocytes; conditions: for glutathione repletion and unmasking of TNFR2-mediated effects (reproducing in vivo NAC treatment): incubation 2-3 hours, 50 μmol/L GSM, 50 μmol/L NAC or 10 mmol/L GSH; for protection against the deleterious effects of TNF-alpha on contraction: preincubation 2-3 hours, exogenously added, 50 μM GSM
# [8] = not given; remark: listed apart in the source
# [9] = in most of the subjects
# [10] = 3-day NAC 120 mg/kg/day, 2-month post-myocardial infarction rats
# [11] = 8 days
# [12] = oral 1800 mg/day added to standard therapy
# [13] = 600 mg to 1000 mg three times daily, 4 weeks
# C3aR = molecular target: T1, C3aR (Homo sapiens, UniProt Q16581); conditions: human neutrophils; read-out: IC50 of inhibition of C3a-induced calcium mobilization
# T1 sequence (Q16581 1-482): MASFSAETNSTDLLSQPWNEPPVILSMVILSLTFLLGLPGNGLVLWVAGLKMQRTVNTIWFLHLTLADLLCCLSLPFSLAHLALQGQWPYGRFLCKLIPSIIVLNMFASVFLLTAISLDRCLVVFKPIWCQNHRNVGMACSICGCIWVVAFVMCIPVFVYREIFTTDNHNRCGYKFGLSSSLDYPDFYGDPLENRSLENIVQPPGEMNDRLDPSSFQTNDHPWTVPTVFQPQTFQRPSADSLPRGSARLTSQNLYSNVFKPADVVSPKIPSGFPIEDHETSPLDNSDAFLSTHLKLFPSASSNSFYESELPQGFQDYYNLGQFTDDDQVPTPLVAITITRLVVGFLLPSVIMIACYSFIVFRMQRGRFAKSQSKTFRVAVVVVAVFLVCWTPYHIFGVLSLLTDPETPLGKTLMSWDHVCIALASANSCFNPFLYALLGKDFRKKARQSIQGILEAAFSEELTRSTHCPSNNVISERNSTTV
# [14] = not given; remark: listed apart in the source
# [15] = 2 μg/day, 3 months
# [16] = for time detectable in serum by HPLC: rats
# [17] = topical, used clinically for years
# [18] = topical pretreatment
# [19] = six months, budesonide 800 μg/d and cholecalciferol 500 IU
# C3 [20] = conditions: sera from cynomolgus monkeys; read-out: IC50 of haemolytic activity
# C3 [21] = conditions: 10 mg/kg i.v. bolus then 60 μg/kg/min infusion
# [22] = test system: C3 proteins from lower mammalian species, C4 and C5
# [23] = in vivo
# [24] = test system: TNFR1-mediated activation of NF-kappa B
# [25] = in vivo; remark: listed apart in the source
# CD3 = molecular target: T2, CD3 (Homo sapiens, UniProt P07766); conditions: in vivo
# T2 construct: endogenous in cells; host or cells: T cells of type 1 diabetes patients (clinical studies reported in the literature)
# [26] = not given; remark: listed apart in the source
# [27] = not given; remark: listed apart in the source
# [28] = oral 4,000-40,000 IU/day, 28 weeks
# T2 sequence (P07766 23-207): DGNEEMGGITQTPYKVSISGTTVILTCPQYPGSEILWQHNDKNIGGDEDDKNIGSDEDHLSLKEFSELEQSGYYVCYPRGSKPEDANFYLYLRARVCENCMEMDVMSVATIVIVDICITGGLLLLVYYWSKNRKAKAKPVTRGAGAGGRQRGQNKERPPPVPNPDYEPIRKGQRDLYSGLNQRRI
# T2 sequence (P04234 22-171 partner): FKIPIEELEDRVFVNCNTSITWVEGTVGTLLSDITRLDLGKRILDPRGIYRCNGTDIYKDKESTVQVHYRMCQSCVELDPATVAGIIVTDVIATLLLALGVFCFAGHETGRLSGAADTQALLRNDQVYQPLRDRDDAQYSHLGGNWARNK
# T2 sequence (P09693 23-182 partner): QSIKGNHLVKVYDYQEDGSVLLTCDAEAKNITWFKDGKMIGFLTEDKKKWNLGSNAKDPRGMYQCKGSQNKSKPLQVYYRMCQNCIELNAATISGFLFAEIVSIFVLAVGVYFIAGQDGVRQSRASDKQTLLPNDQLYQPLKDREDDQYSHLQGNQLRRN
# T2 sequence (P20963 22-164 partner): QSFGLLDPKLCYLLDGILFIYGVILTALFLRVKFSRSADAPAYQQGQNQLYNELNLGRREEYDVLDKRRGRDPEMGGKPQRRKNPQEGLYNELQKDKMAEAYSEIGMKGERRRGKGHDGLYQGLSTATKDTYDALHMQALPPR
compound,measurement,setting,value
"C=C1/C(=C\C=C2/CCC[C@]3(C)[C@@H]([C@H](C)CCCC(C)(C)O)CC[C@@H]23)C[C@@H](O)C[C@@H]1O [1,25-(OH)2D3, 1α,25-dihydroxyvitamin D3]",airway hyper-responsiveness,[1],significantly inhibited
same,serum OVA-specific IgE levels,[1],potentiated the reduction; also recorded: significant reduction
same,development / onset of diabetes,[2],prevented
same,progression of arthritis and hypercalcemia,"diet, 20 ng/mouse/day",effective in inhibiting the progression of arthritis without producing hypercalcemia
same,symptoms of Lyme arthritis (B. burgdorferi infection),dietary supplementation,minimized or prevented
same,symptoms of collagen-induced arthritis,dietary supplementation,prevented
same,treated mice in which appearance of paralysis was prevented,[3],70%
same,adverse effect reported,[4],hypercalcaemia; also recorded: hypercalcemia
"C=C1CC[C@H](O)C/C1=C/C=C1\CCC[C@]2(C)[C@@H]([C@H](C)CCCC(C)(C)O)CC[C@@H]12 [25-OH-D3, 25-hydroxyvitamin D3]",serum levels of 25-OH-D3 to be kept below to avoid toxicity,[5]; based on experiments in the rat,below 250 ng/ml
same,serum levels of 25-OH-D3 at which toxicity occurs,"[5]; rat, in vivo",≥ 500 ng/mL
same,adverse effects,"[6]; 1,000 to 40,000 IU/day",no adverse effects
same,disease progression and relapse activity,[6]; [28],not affected
same,number of new lesions assessed by MRI,[6]; [28],significant decrease
"CC(=O)Oc1ccccc1C(=O)O [ASA, acetylsalicylic acid]",IC50,NF-kappa B translocation,~3000 µM
"N[C@@H](CCC(=O)N[C@@H](CS)C(=O)NCC(=O)O)C(=O)O [GSH, glutathione]",glutathione repletion and unmasking of TNFR2-mediated effects (reproducing in vivo NAC treatment),[7],could not reproduce
"CSC[C@H](NC(=O)CC[C@H](N)C(=O)O)C(=O)NCC(=O)O [GSM, S-methylglutathione]",glutathione repletion and unmasking of TNFR2-mediated effects (reproducing in vivo NAC treatment),[7],achieved
same,protection against the deleterious effects of TNF-alpha on contraction,[7],protected
same,solubility in water,[8],8.1 mM
"CC(=O)N[C@@H](CS)C(=O)O [NAC, N-acetyl-L-cysteine]",highest non-toxic dose,[9],800 mg/m^2/day
same,"GSH content of the left ventricle, % of control level in sham rats",[10],75%
same,glutathione repletion and unmasking of TNFR2-mediated effects (reproducing in vivo NAC treatment),[7],could not reproduce
same,protection against the deleterious effects of TNF-alpha on contraction,[7],not protected
same,decrease of ovalbumin-specific IgE and IgG1,[11]; 0.5 g/liter in drinking water,~30%
same,decrease of ovalbumin-specific IgE and IgG1 responses,[11]; 1.0 g/liter in drinking water,more than 70%
same,primary end points including vital capacity,[12],better
same,"safety and effect on blood neutrophil GSH, airway neutrophil count and elastase activity",[13],safe and effective
same,cytotoxicity to resting T cells,"peripheral blood T cells; 1 mM to 20 mM, 3 days, seven donors",nontoxic
same,effect on T cell function and growth,peripheral blood T cells; 10 mM,effective enhancer of T cell function and enhancer of growth
"N=C(N)NCCCC(NC(=O)COCC(c1ccccc1)c1ccccc1)C(=O)O [SB290157, N^2-[(2,2-dipheneylethoxy)acetyl]-L-arginine]",IC50,C3aR,0.028 µM
same,in vivo half-life,[14],short
same,solubility in DMSO,[8],5000 µg/mL
same,solubility in saline solution containing 5% ethanol and 10% Cremaphor-EL,[8],at least 10 mg/ml
C=C1/C(=C\C=C2/CCC[C@]3(C)[C@@H]([C@H](C)CCCC(C)C)CC[C@@H]23)C[C@@H](O)C[C@@H]1O [alfacalcidiol],patients going into remission,[15],45%
same,patients with improvement of disease activity,[15],89%
C=C1/C(=C\C=C2/CCC[C@]3(C)[C@@H]([C@H](C)/C=C/[C@@H](O)C4CC4)CC[C@@H]23)C[C@@H](O)C[C@@H]1O [calcipotriol],"times less effect on calcium metabolism compared to 1,25-(OH)2D3",calcium metabolism; activation of calcium absorption and bone calcium mobilization,100-200 times
same,"effects of the metabolites, times weaker than those of the parent compound",calcium metabolism; in vivo,100 times
same,time detectable in serum by HPLC,[16]; i.v. 10 μg/kg,up to 5 min
same,time detectable in serum by HPLC,[16]; i.v. 50 μg/kg,up to 10 min
same,half-life in circulation,"[16]; rat, in vivo",short; also recorded: very short
same,"rate of clearance, times higher than for 1,25-(OH)2D3","[16]; rat, in vivo",approximately 140 times
same,systemic toxicity,[17],without systemic toxicity
same,CD4+CD25+ Tregs,[18],induced
same,antigen-specific CD8+ T cell priming,[18],abolished
same,solubility in ethanol,[8],approx. 50 mg/ml
same,"solubility in a 1:5 solution of ethanol:PBS, pH 7.2",[8]; pH 7.2,approx. 0.15 mg/ml
C=C1CC[C@H](O)C/C1=C/C=C1\CCC[C@]2(C)[C@@H]([C@H](C)CCCC(C)C)CC[C@@H]12 [cholecalciferol],children who experienced asthma exacerbation,[19],17%
CC[C@H](C)[C@H](N)C(=O)N[C@H]1CSSC[C@@H](C(=O)N[C@H](C(N)=O)[C@@H](C)O)NC(=O)[C@H](CCCN=C(N)N)NC(=O)[C@H](Cc2cnc[nH]2)NC(=O)[C@H](Cc2cnc[nH]2)NC(=O)CNC(=O)[C@H](Cc2c[nH]c3ccccc23)NC(=O)[C@H](CC(=O)O)NC(=O)[C@H](CCC(N)=O)NC(=O)[C@H](C(C)C)NC(=O)[C@H](C(C)C)NC1=O [compstatin],IC50,C3 [20],[…]
same,effect in sepsis model,C3 [21],decrease the procoagulant response and to confer organ protection
same,binding to C3 from lower mammalian species or to C4 and C5,[22],does not bind
O=C(O)c1ccccc1O [salicylate],levels at which tinnitus may occasionally occur,[23],≥ 95000 ng/mL
O=C(O)c1ccccc1O [salicylic acid],solubility in ethanol/water (10:90 vol),[8],21 mM
same,solubility in ethanol/water (20:80 vol),[8],35 mM
same,solubility in ethanol/water (30:70 vol),[8],81 mM
same,solubility in ethanol/water (40:60 vol),[8],277 mM
same,solubility in ethanol/water (50:50 vol),[8],526 mM
same,solubility in water,[8]; salicylic acid,14 mM
O=C([O-])c1ccccc1O.[Na+] [sodium salicylate],dose required for inhibition of TNFR1-mediated activation of NF-kappa B,[24],10 to 20 mM
Ac-Phe-[Orn-Pro-DCha-Trp-Arg] [PMX53],half-life,[25],1.17 h
Otelixizumab: Fc-mutated anti CD3 mAb,clinical efficacy in phase III studies,CD3,failed to show clinical efficacy
R121D/Y124D: human IL-4 double mutant antagonizing IL-4 and IL-13,cutaneous wheal response and circulating allergen-specific IgE,"IL-4 and IL-13; subcutaneous, 6 weeks or more",reduced
same,allergen-induced airways hyper-responsiveness,IL-4 and IL-13; subcutaneously or via nebulisation,protect
TFGLQLELT [nonapeptide 180-188],rats showing clinical symptoms of adjuvant arthritis during pretreatment period,[26]; i.p. 100 μg in FIA,none of the rats
same,rats completely protected against subsequently induced adjuvant arthritis,[26]; three times 100 μg in FIA,11 out of 16
Teplizumab: humanized anti CD3 mAb mutated to prevent binding to Fc receptors,clinical efficacy in phase III studies,CD3,failed to show clinical efficacy
vitamin D,relative risk of type 1 diabetes over the subsequent 30 years,[27]; doses of exactly 50 μg/day,0.22
same,relative risk of type 1 diabetes over the subsequent 30 years,"[27]; regular, doses of over 50 μg/day (2000 IU/d)",0.14
same,relative risk of developing type 1 diabetes,[27]; supplements given irregularly,0.16
same,relative risk of developing type 1 diabetes,[27]; supplements given regularly,0.12
